According to article PMC9385671 (Nature Communications, 2022):
“And” between values parts separate entries of the source, which are not always exact repeats. Identical values can stand only once. Like-named read-outs stand apart in the source and are kept apart here.

B1: wild type FtsZ-YFP-mts (domain or fragment, UniProt P0A9A6 1-366, looked up)
chain: MFEPMELTNDAVIKVIGVGGGGGNAVEHMVRERIEGVEFFAVNTDAQALRKTAVGQTIQIGSGITKGLGAGANPEVGRNAADEDRDALRAALEGADMVFIAAGMGGGTGTGAAPVVAEVAKDLGILTVAVVTKPFNFEGKKRMAFAEQGITELSKHVDSLITIPNDKLLKVLGRGISLLDAFGAANDVLKGAVQGIAELITRPGLMNVDFADVRTVMSEMGYAMMGSGVASGEDRAEEAAEMAISSPLLEDIDLSGARGVLVNITAGFDLRLDEFETVGNTIRAFASDNATVVIGTSLDPDMNDELRVTVVATGIGMDKRPEITLVTNKQVQQPVMDRYQQHGMAPLTQEQKPVAKVVNDNAPQTA
notes: FtsZ, prokaryotic cell-division protein (ftsZ gene product), truncated to residues 1-366; also called FtsZ chimera; FtsZ(1-366) fused with YFP and mts; source: E. coli BL21(DE3), pET-11b, purified (ammonium sulphate precipitation, anion exchange Q-Sepharose)
B2: Wild type FtsZ-YFP-mts: truncated FtsZ(1-366) fused with yellow fluorescent protein (YFP) and a membrane-targeting sequence (mts) (protein)
chain: B1 chain
modifications: left off: YFP, end not stated, kept | mts (membrane-targeting sequence), end not stated, kept

How the values were obtained:
[1] = Side-chain acidity: pKa by 1H NMR titration of free amino acids; assay type: physicochemical; details: for pKa: aqueous KH2PO4 solution titrated with sodium hydroxide
Method: 10–20 mg of an amino acid, 50 mg of KH2PO4 was dissolved in 15 ml of water and titrated by sodium hydroxide solution to distinct pH values. 500 μl were taken to NMR tubes, 50 μl deuterium oxidewas added and ^1H NMR spectra were measured using W5 pulse tray water suppression at 500 MHz frequency. The chemical shifts were plotted against pH and analyzed using Henderson-Hasselbalch equation to deliver the pKa values. Experimental error ±0.15.

[2] = molecular target: T1, MjTyrRS variants (Methanocaldococcus jannaschii, UniProt Q57834, D158A/F108N/H70G/L162C/L65E/Y32V); experiment: Intact cell fluorescence assay of HYs incorporation into SUMO-sfGFP; assay type: cell-based; details: Synthetase C64RS
T1 construct: expressed in transfected cells
T1 sequence (Q57834 whole entry Y32V/L65E/H70G/F108N/D158A/L162C): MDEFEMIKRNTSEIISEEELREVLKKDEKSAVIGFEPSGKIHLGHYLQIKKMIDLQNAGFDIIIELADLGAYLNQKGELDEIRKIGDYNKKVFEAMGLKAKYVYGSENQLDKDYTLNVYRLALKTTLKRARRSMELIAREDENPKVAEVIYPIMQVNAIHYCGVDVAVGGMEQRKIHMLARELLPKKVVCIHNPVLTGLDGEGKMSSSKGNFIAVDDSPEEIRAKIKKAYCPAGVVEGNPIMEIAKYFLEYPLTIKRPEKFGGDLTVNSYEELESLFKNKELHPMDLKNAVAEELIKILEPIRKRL
Method: (§1) The intact cell fluorescence assay was performed to approximately compare the Br2Y and Cl2Y incorporation efficiency of screened MjTyrRSs as well as to estimate their promiscuity against other Tyr analogues. Since the gene expression of SUMO-sfGFP was driven by T5 promoter on the one round positive selection plasmid, SUMO-sfGFP can be directly expressed in DH10b strain. […] Next day, an overnight culture was inoculated in a well at a ratio of 1:100 containing 300 μL TB medium supplemented with 50 μg/mL Kan,100 μg/mL Amp, 0.5 mM IPTG as well as 1 mM HYs while the corresponding control lacked the HYs. Cells were grown in 96 well plates (Ibidi) with orbital shaking (2 mm amplitude) for 24 h at 37 °C covered with a gas-permeable foil (Sigma Aldrich, Taufkirchen, Germany). […] After 24 h incubation, the optimal density and fluorescence was measured via top reading after the gas-permeable foil was removed. Each measurement was done in triplicate.

[3] = molecular target: T2, MjTyrRS variants (Methanocaldococcus jannaschii, UniProt Q57834, D158A/F108Q/H70G/L162N/L65E/Q109C/Y32G); experiment: as above; assay type: cell-based; details: Synthetase B48RS
T2 construct: expressed in transfected cells
T2 sequence (Q57834 whole entry Y32G/L65E/H70G/F108Q/Q109C/D158A/L162N): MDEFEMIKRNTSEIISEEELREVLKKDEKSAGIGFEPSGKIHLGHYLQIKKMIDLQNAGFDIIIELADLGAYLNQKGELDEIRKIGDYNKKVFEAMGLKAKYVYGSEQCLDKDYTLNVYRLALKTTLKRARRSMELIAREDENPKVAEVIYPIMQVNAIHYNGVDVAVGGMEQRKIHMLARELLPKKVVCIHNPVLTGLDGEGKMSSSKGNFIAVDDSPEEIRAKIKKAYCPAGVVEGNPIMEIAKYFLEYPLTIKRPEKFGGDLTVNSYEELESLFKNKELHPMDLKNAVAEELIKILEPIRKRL
Method: as §1

[4] = tested on: MjTyrRS variants; experiment: as above; assay type: cell-based, Methanocaldococcus jannaschii
Method: as §1

[5] = molecular target: T3, FtsZ-YFP-mts (Escherichia coli, UniProt P0A9A6); assay type: biochemical; parameters: made in house; host or cells: E. coli BL21(DE3) for the wild type; details: 5 μM protein, 1 mM GTP; for GTPase activity, Average: average of two repeats; for GTPase activity, single repeats: repeat 1 and repeat 2
Method: Reactions were performed every 20 s for a total time of 120 s. After 30 min of incubation with BIOMOL® GREEN at room temperature, the absorbance of the samples at 620 nm was monitored by TECAN plate reader. The phosphate release concentrations were calculated based on a phosphate standard curve.

[6] = molecular target: the molecule itself; experiment: dynamic light scattering; 12.5 µM FtsZ in SLB buffer (50 mM Tris-HCl pH 7.5, 150 mM KCl), 25 °C, 90° light scattering; polymerisation started by adding 4 mM GTP, followed for at least 70 min
[7] = molecular target: T3, FtsZ-YFP-mts; details: on SLB; slope of kymographs
Method: (§2) Images corresponded to an average of 5–10 frames from a time-series experiment. For the kymograph analysis, time-series acquisitions were filtered using a standard mean filter (2 pixel) and were drift corrected (multistackreg plugin). A MATLAB script allowed the user to define a ring by providing two coordinates. Every ring was automatically fitted to a circle with radius r. Then, three trajectories corresponding to three concentric circles having radii r, r + 1, and r − 1 pixels were determined. At this point, the script read the time-series data and calculated a kymograph for each time point and trajectory. To automatically calculate the slope, the kymograph was smoothed with a Savitzky-Golay filter of order 2 and enhance its contrast using a contrast-limited-adaptive-histogram-equalization (CLAHE) routine (MATLAB). Next, using Fourier analysis from previous study, the characteristic frequency for the patterns on the kymograph was found. Finally, the slope corresponded to the change in phase at this frequency. Quality criteria were properly chosen to reject low-quality regions over the kymograph. To synchronize time-lapse acquisitions, the initial frame (time 0) was defined when surface mean intensity was around 200 A.U.

[8] = tested on: FtsZ-YFP-mts; details: on SLB; mean ± SD
Method: as §2

[9] = molecular target: T3, FtsZ-YFP-mts; details: on SLB; n = 6
Method: (§3) Fluorescence recovery after photobleaching data (FRAP) on the SLB were evaluated by choosing two separately circle areas (r = 4 µm). One circle was taken as a reference. Another one was photobleached by 20 iterations of 488 nm, laser under 100% laser power. Their fluorescence recovery in the green channel was monitored. Intensity traces were collected using Fiji, corrected for photobleaching and normalized with the pre-bleaching intensity and the reference intensity. The fluorescence recovery curves were then fitted with mono-exponential equation using Originpro (v_2017 & v_2019):1 Y=Ae^−kt+B, where Y represents fluorescence intensity at time t, A and B are parameters, and k represents the rate constant. The half-life, t1/2, was determined using the following equation:2 t1/2=ln2k^−1

[10] = tested on: FtsZ-YFP-mts; details: FRAP
Method: as §3

[11] = molecular target: T3, FtsZ-YFP-mts; details: total protein 0.5 µM
Method: The final volume of a sample was approximately 250 μl. […] Polymerization was induced by adding 4 mM GTP.

[12] = molecular target: T3, FtsZ-YFP-mts; parameters: made in house; host or cells: E. coli BL21(DE3) for the wild type; details: 0.5 μM protein, 4 mM GTP
Method: 1,2-dioleoyl-sn-glycero-3-phosphocholine (DOPC):1,2-dioleoyl-sn-glycero-3-phospho-(1’-rac-glycerol) (DOPG), 70:30 mol % mixture, was dissolved in chloroform in a quartz container, then dehumidified under a gas nitrogen stream. Chloroform traces were further removed through desiccation (1 h). Afterwards, the lipid film was hydrated to a final concentration of 4 mg/ml in supported lipid bilayers (SLB) buffer (50 mM Tris-HCl at pH 7.5, 150 mM KCl), and incubated at 37 °C for 30 min. The lipid film was then completely resuspended by vortexing rigorously to obtain multilamellar vesicles of different sizes. This mixture was then placed in a bath sonicator where shear forces help to reduce the size of the vesicles, giving rise to small unilamellar vesicles (SUVs). The SUV dispersion were stored at −20 °C as 20 µl aliquots.
Glass coverslips (1.5#, 24 x 24 mm) were cleaned by piranha solution overnight, followed by extensive washing with milliQ H2O. Then glass coverslips were blown dry with compressed air. The reaction chamber was prepared by attaching a plastic ring on a cleaned glass coverslip using ultraviolet glue (Thorlabs No. 68). For supported lipid bilayer formation, the SUV dispersion was diluted in SLB buffer to 0.5 mg/ml, of which 75 µl was added to the reaction chamber. Adding CaCl2 to a final concentration of 3 mM induced fusion of the vesicles and the formation of a lipid bilayer on coversilde. After 20 min of incubation at 37 °C, the sample was rinsed with 2 ml pre-warmed SLB buffer.
Polymerization was induced by adding 4 mM GTP.
The UltimateFocus feature of DeltaVision Elite maintains the focus plane constant in time. […] Fluorescence imaging was performed using a standard FITC filter set. Images were acquired with a PCO sCMOS 5.5 camera (PCO, Germany) controlled by the softWoRx Software (GE Healthcare Life Sciences, Germany). For time-lapse experiments, images were acquired every 3 s with a 0.05 s exposure time and light illumination shuttered between acquisitions.

[13] = experimental error ±0.15, read-out: Ammonium pKa
[14] = experimental error ±0.15, read-out: pKa of the phenolic side-chain

| Molecule | pKa [1, 13] | pKa [1, 14] | Fluorescence Instensity [2] | Fluorescence Instensity [3] | Fluorescence Instensity ([4]; Synthetase B12RS) | Fluorescence Instensity ([4]; Synthetase B37RS) | Fluorescence Instensity ([4]; Synthetase B39RS) | Fluorescence Instensity ([4]; Synthetase C45RS) | GTPase activity, Average [5] | GTPase activity, single repeats [5] | further results |
| --- | --- | --- | --- | --- | --- | --- | --- | --- | --- | --- | --- |
| N[C@@H](Cc1cc(I)c(O)c(I)c1)C(=O)O [I2Y, 3,5-diiodo-L-tyrosine] | 9.38 | 6.5 | 0.1172 a.u. and 0.1504 a.u. and 0.08392 a.u. | 0.00608 a.u. and 0.00634 a.u. and 0.00611 a.u. | 0.07137 a.u. and 0.08741 a.u. and 0.05734 a.u. | 0.1118 a.u. and 0.1372 a.u. and 0.08534 a.u. | 0.1743 a.u. and 0.1958 a.u. and 0.1504 a.u. | 0.07608 a.u. and 0.1006 a.u. and 0.05086 a.u. | 1.222 pi/min | 1.132 pi/min and 1.3119 pi/min | pKa of the phenolic side-chain ([1]; experimental error ±0.15): 6.45; Fluorescence Instensity ([4]; Synthetase B4RS): 0.01117 a.u. and 0.01123 a.u. and 0.01112 a.u. |
| N[C@@H](Cc1ccc(O)c(I)c1)C(=O)O [IY, 3-iodo-L-tyrosine] | 9.37 | 8.3 | 0.4349 a.u. and 0.5128 a.u. and 0.3571 a.u. | 0.5153 a.u. and 0.5773 a.u. and 0.4545 a.u. | 0.5049 a.u. and 0.5603 a.u. and 0.4548 a.u. | 0.268 a.u. and 0.305 a.u. and 0.2304 a.u. | 0.1745 a.u. and 0.1928 a.u. and 0.1452 a.u. | 0.7321 a.u. and 0.8284 a.u. and 0.6034 a.u. |  | 1.6686 pi/min and 1.8578 pi/min | Fluorescence Instensity ([4]; Synthetase C5RS): 0.6274 a.u. and 0.698 a.u. and 0.5495 a.u.; Fluorescence Instensity ([4]; Synthetase C61RS): 0.5143 a.u. and 0.5653 a.u. and 0.452 a.u. |
| B1 |  |  |  |  |  |  |  |  |  |  | binding result [6]: binds |
| B2 |  |  |  |  |  |  |  |  | 7.3492 pi/min | 7.7984 pi/min and 6.9 pi/min | Mean rotation (treadmilling) velocity [7]: 21.63 ± 5.11 nm/s; Treadmilling velocity [8]: 21.63 ± 5.11 nm/s; FRAP half-time [9]: 4.97 ± 0.24 s; half time, ave ([10]; average of the three measurements (stdev in the row below), Fig. 2h): 4.974 s; half time ([10]; individual measurements, source data of Fig. 2h): 4.866 s and 5.251 s and 4.806 s; Ring density, Average ([11]; average of three repeats): 144248 µm−2; Ring density, single repeats ([11]; repeats 1-3, listed as 0 Cl2Y): 133565 µm−2 and 142057 µm−2 and 157123 µm−2; Ring density ([11]; stated percentage of Cl2Y modified variant): 1.44 (±0.12) × 10^5 µm^−2; Phosphate at Time 0.3 min ([5]; time 0.3 min, repeats 1 and 2): 6.378 µM and 10.2373 µM; Phosphate at Time 0.7 min ([5]; time 0.7 min, repeats 1 and 2): 8.111 µM; Phosphate at Time 1 min ([5]; time 1 min, repeats 1 and 2): 13.7966 µM and 9.644 µM; Phosphate at Time 2 min ([5]; time 2 min, repeats 1 and 2): 19.8222 µM and 22.4068 µM; Ring pattern formation on supported lipid bilayer ([12]; TIRFM): homogeneous treadmilling ring pattern; Average ring diameter ([12]; on SLB, mean ± SD): 0.80 ± 0.18 μm |
